Data from US6645504B1, “Bystander suppression of type I diabetes by oral administration of glucagon” (AutoImmune Inc., priority 1987, dated 2003).
Where no end group is shown, it is not given here.

B1: bovine PLP: Bovine proteolipid protein (protein, listed as Bos taurus)
chain: GLLECCARCLVGAPFASLVATGLCFFGVALFCGCGHEALTGTEKLIETYFSKNYQDYEYLINVIHAFQYVIYGTASFFFLYGALLLAYGFYTTGAVRQIFGDYKTTICGKGLSATVTGGQKGRGSRGQHQAHSLERVCHCLGKWLGHPDKFVGITYALTVVWLLVFACSAVPVYIYFNTWTTCQSIAAPSKTSASIGTLCADARMYGVLPWNAFPGKVCGSNLLSICKTAEFQMTFHLFIAAFVGAAATLVSLVTFMIAATYNFAVLKLMGRGTKF
B2: mouse MBP: Mouse myelin basic protein (protein, UniProt P04370 1-250, looked up)
Myelin basic protein: MGNHSGKRELSAEKASKDGEIHRGEAGKKRSVGKLSQTASEDSDVFGEADAIQNNGTSAEDTAVTDSKHTADPKNNWQGAHPADPGNRPHLIRLFSRDAPGREDNTFKDRPSESDELQTIQEDPTAASGGLDVMASQKRPSQRSKYLATASTMDHARHGFLPRHRDTGILDSIGRFFSGDRGAPKRGSGKDSHTRTTHYGSLPQKSQHGRTQDENPVVHFFKNIVTPRTPPPSQGKGGRDSRSGSPMARR

What was measured:
OVA (responder) line = assay: Transwell triggering of suppression by MBP peptides; format: cell-based, rats; conditions: peptide added to modulator well with spleen cells of MBP-fed animals; FIG. 11
Source text: Transwell Cultures. A dual chamber transwell culture system (Costar, Cambridge, Mass.), which is 24.5 mm in diameter and consists of two compartments separated by a semi-permeable polycarbonate membrane, with a pore size of 0.4 μm, was used. The two chambers are 1 mm apart, allowing cells to be coin-cubated in close proximity without direct cell-to-cell contact. To measure in vitro suppression of proliferative responses in transwell cultures, 5×10^4 MBP- or OVA-specific line cells, raised and maintained as previously described (Ben-Nun, A. et al., Eur. J. Immunol. 11:195, 1981), were cultured with 10^6 irradiated (2,500 rad) thymocytes, in 600 μl of proliferation media in the lower well. Spleen cells from orally tolerized rats or controls (fed BSA) were added to the upper well (5×10^5 cells in 200 μl). Spleen cells were removed 7-14 days after the last feeding, and a single cell suspension was prepared by pressing the spleens through a stainless steel mesh. MBP and OVA (50 μg/ml) were added in a volume of 20 μl. […] In some experiments, modulator cells were added in the lower well together with responder cells, and in these instances modulator cells were irradiated (1,250 rad) immediately before being placed in culture. Proliferation media consisted of RPMI 1640 (Gibco Laboratories, Grand Island, N.Y.) supplemented with […] 2-mercaptoethanol, 1% sodium pyruvate, 1% penicillin and streptomycin, 1% glutamine, 1% HEPES buffer, 1% nonessential amino acids, and 1% autologous serum. Each transwell was performed in quadruplicate. The transwells were incubated at 37° C. in a humidified 6% CO2 and 94% air atmosphere for 72 hours. After 54 hours of culture, each lower well was pulsed with 4 μCi of [^3H]thymidine and at 72 hours split and reseeded to three wells in a round-bottomed 96-well plate (Costar) for harvesting onto fiberglass filters and counting using standard liquid scintillation techniques. Percent suppression =100×(1−Δ A cpm responders cultured with modulators/Δ cpm of responders).
The Transwell System of Example 2 above was used to identify the epitopes present on guinea pig MBP which induce the release of TGF-β from suppressor T-cells.
Peptides corresponding to guinea pig MBP residue nos.

EAE [1] = assay: EAE induced by guinea pig MBP 71-90, feeding of MBP peptides; format: in vivo, Lewis rats; conditions: fed; FIG. 14
Description: The effects of feeding various peptides to Lewis rats induced for EAE by guinea pig MBP residue nos. 71-90 (the major immunodominant epitope of guinea pig MBP as shown in Example 3 above) were also studied.
EAE was induced by immunizing with 0.25 mg of guinea pig MBP amino acid residue nos 71-90 in Complete Freund's Adjuvant and the effect of feeding various guinea pig MBP peptides on EAE was examined.

DTH responses = DTH responses in animals fed MBP or MBP peptides; format: in vivo, Lewis rats; conditions: FIG. 15
Source text: Guinea pig MBP peptide 131-150 was ineffective in this case. Peptides were also fed with STI which prevents their breakdown by gastric juices and enhances their biological effect. DTH responses to whole MBP were suppressed by feeding MBP or any one of the MBP-peptides 21-40, or 71-90.

EAE [2] = assay: I.V. tolerization with MBP and MBP peptides in EAE induced with whole guinea pig MBP; format: in vivo, SJL/J mice; conditions: days 8 and 9 post immunization, FIG. 16
Source text: FIG. 16 is a bar graph showing the effect of intravenous tolerization with MBP and disease inducing and non-inducing fragments thereof on induced EAE expression in SJL/J mice.
Finally, the suppression of EAE by I.V. tolerization with MBP and MBP peptides prior to disease expression (on days 8 and 9 post immunization) was examined.

insulitis = assay: Suppression of insulitis in NOD mice by oral administration; format: in vivo; conditions: fed orally; for Insulitis Score: amount (mg) per Table 5, sacrificed at ten weeks of age
Description: NOD mice (Taconic Labs) were fed one mg of glucagon, or one mg of porcine insulin (both commercially purchased) or equal molar amounts of insulin A-chain, B-chain and B-chain peptides described below (all insulin fragments having been synthesized) twice weekly for five weeks and sacrificed at ten weeks of age.
Control animals were fed a non-pancreatic (i.e., unrelated) peptide, GAP. Insulitis was measured as a semiquantitative insulitis score according to the method described in Zhang, Z. J., PNAS(USA), 88:10252-10256, 1991.
The insulin B-chain peptides corresponded to amino acid residues 1-12 (B1-12), 10-22 (B10-22), 11-30 (B11-30) and 23-30 (B23-30). All animals were fed 10 times over three weeks.

EAE [3] = assay: EAE induced with PLP peptide 140-160, oral vs. I.V. administration; format: in vivo, SJL/J mice; conditions: 0.25 mg every other day
Description: 2. Fed Mouse MBP (0.25 mg)
3. Fed Bovine PLP (0.25 mg)
4. Inject I.V. Histone (0.25 mg)
5. Inject I.V. MBP (0.25 mg)
6. Inject I.V. PLP (0.25 mg)
Each group was treated every other day for 7 days. In the intravenous group, the material was injected into the eye plexus. The PLP peptide used was the disease inducing fragment 140-160 of bovine PLP. This peptide has the amino acid sequence H2N-[…]-CO2H (SEQ. ID NO: 13), representing the foregoing amino acid residues.

| Molecule | suppression of insulitis (in words) (insulitis) | Insulitis Score (insulitis) | other results |
| --- | --- | --- | --- |
| guinea pig MBP 21-40: peptide corresponding to guinea pig MBP amino acid residues 21-40 (MDHARHGFLPRHRDTGILDS; UniProt P25188 21-40, looked up, fragment) |  |  | triggering suppression of proliferation in the transwell system (OVA (responder) line): capable of triggering suppression of proliferation; down-regulation of EAE induced by guinea pig MBP 71-90 (EAE [1]): equally effective in down-regulating EAE; DTH responses to guinea pig MBP peptide 71-90 (DTH responses): not affected; DTH responses to whole MBP (DTH responses): suppressed; suppression of EAE induced with whole guinea pig MBP (EAE [2]): ineffective in suppressing EAE |
| guinea pig MBP 51-70: peptide corresponding to guinea pig MBP amino acid residues 51-70 (APKRGSGKDSHHAARTTHYG; UniProt P25188 51-70, looked up, fragment) |  |  | triggering suppression of proliferation in the transwell system (OVA (responder) line): capable of triggering suppression of proliferation |
| guinea pig MBP 131-150: Guinea pig MBP peptide 131-150 (DYKSKGFKGAHDAQGTLSKI; UniProt P25188 131-150, looked up, fragment) |  |  | down-regulation of EAE induced by guinea pig MBP 71-90 (EAE [1]): ineffective; suppression of EAE induced with whole guinea pig MBP (EAE [2]): ineffective in suppressing EAE |
| B10-22: insulin B-chain peptide, amino acid residues 10-22 (HLVEALYLVCGER; ends and bridges not checked; UniProt P01308 34-46, looked up, fragment) | suppressed insulitis | 1.71 |  |
| B1-12: insulin B-chain peptide, amino acid residues 1-12 (FVNQHLCGSHLV; ends and bridges not checked; UniProt P01308 25-36, looked up, fragment) | suppressed insulitis | 1.76 |  |
| B-Chain: insulin B-chain, synthesized | suppressed insulitis | 1.32 |  |
| B23-30: insulin B-chain peptide, amino acid residues 23-30 (GFFYTPKT; Insulin B chain; UniProt P01308 47-54, looked up, fragment) | did not | 2.22 |  |
| glucagon [reference compound] | effective in suppressing insulitis | 1.81 |  |
| guinea pig MBP 101-120: peptide corresponding to guinea pig MBP amino acid residues 101-120 (SQGKGRGLSLSRFSWGAEGQ; UniProt P25188 101-120, looked up, fragment) |  |  | triggering suppression of proliferation in the transwell system (OVA (responder) line): capable of triggering suppression of proliferation |
| B11-30: insulin B-chain peptide, amino acid residues 11-30 (LVEALYLVCGERGFFYTPKT; ends and bridges not checked; UniProt P01308 35-54, looked up, fragment) | suppressed insulitis | 1.44 |  |
| A-Chain: insulin A-chain, synthesized | suppressed insulitis | 1.88 |  |
| B1 |  |  | suppression of PLP-peptide-induced EAE (EAE [3]; administered intravenously, FIG. 13): effective in suppressing EAE; suppression of PLP-peptide-induced EAE (EAE [3]; orally administered, FIG. 12): equally effective in down-regulating PLP-peptide-induced EAE |
| B2 |  |  | suppression of PLP-peptide-induced EAE (EAE [3]; orally administered, FIG. 12): equally effective in down-regulating PLP-peptide-induced EAE |
